Converted amounts (≈) assume the structure as drawn.
How the values were obtained:
Tyrosinase = biological target: T1, Tyrosinase (Agaricus bisporus, UniProt O42713)
T1 sequence (O42713 whole entry): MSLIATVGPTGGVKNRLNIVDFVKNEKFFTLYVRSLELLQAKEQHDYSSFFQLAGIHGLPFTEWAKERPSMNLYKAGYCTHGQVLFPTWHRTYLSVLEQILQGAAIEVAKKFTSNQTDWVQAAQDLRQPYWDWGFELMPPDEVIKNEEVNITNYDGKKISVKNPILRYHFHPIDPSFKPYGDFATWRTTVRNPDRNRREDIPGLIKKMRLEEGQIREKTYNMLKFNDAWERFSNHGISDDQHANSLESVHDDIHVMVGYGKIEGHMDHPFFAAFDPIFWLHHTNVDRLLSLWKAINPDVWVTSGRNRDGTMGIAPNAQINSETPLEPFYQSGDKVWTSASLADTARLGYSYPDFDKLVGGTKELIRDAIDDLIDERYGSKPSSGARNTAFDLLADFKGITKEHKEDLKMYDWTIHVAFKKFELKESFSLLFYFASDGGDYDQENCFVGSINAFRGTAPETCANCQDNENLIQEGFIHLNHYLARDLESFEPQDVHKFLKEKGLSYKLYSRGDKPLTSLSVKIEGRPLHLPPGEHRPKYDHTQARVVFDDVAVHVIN
Description: Inhibition of mushroom tyrosinase by spectrophotometry

[1] = system: Radical scavenging activity; assay: Antioxidant activity assessed as DPPH radical scavenging activity at 0.1 mg/mL; format: functional
[2] = system: Radical scavenging activity; assay: Antioxidant activity assessed as DPPH radical scavenging activity; format: functional

| SMILES | IC50 (Tyrosinase) | Activity [1] | further results |
| --- | --- | --- | --- |
| CC1=C(CO)C(C)(C)CC(=O)C1O (configuration not stated) [CROCUSATIN L] | 1000 µM |  |  |
| O=C(O)c1ccc(O)c(O)c1 |  | 89.9% |  |
| O=c1c(O)c(-c2ccc(O)cc2)oc2cc(O[C@@H]3O[C@H](CO)[C@@H](O)[C@H](O)[C@H]3O)cc(O)c12 |  | 91.2% |  |
| CC1=C(C=O)C(C)(C)[C@@H](O)[C@H](O)C1 [CROCUSATIN K] | 260 µM |  |  |
| O=c1c(O)c(-c2ccc(O)cc2)oc2cc(O)cc(O)c12 |  | 86.5% |  |
| CC1=CC(=O)CC(C)(C)C1O (configuration not stated) | 1100 µM |  |  |
| Cc1c(C)c2c(c(C)c1O)CC[C@@](C)(CCC[C@H](C)CCC[C@H](C)CCCC(C)C)O2 [ALPHA-TOCOPHEROL] |  |  | IC50 [2]: 150 µg/mL (≈ 348 µM) |

From ChEMBL document CHEMBL1146507, “Antityrosinase principles and constituents of the petals of Crocus sativus” (J Nat Prod, 2004)
